In patent US20240246979A1, “cGAS INHIBITORS” (Eli Lilly and Company, priority 2022, published 2024) one finds IC50 data, which are given here for 14 compounds.

Usually IC50 stands for the midpoint of a concentration-inhibition curve.

SMILES strings stand for the structures.

The target of assay [1] is T1, cGAS (Homo sapiens, UniProt Q8N884). The assay can be described thus: Cellular assay to measure cGAS activity (IFNb AlphaLISA in THP1 cells stimulated by RDG-Adenovirus-GFP). The following applies: PMA-differentiated THP1 cells, RDG-Adenovirus-GFP at 1000 MOI; inhibition of IFNb production as marker for cGAS activity. Details: host or cells: THP1 cells differentiated with PMA and stimulated with RDG-Adenovirus-GFP. Format: cell-based. As to the method: Cellular assay to measure cGAS activity: Use THP1 cell line from ATCC to determine inhibition of cGAS activity by test compounds in human cells. Plate cells on 96-well plates at 0.2×10^6/well and differentiate with phorbol myristate acetate (PMA) at 37° C./5% CO2. After 24 hours, replace PMA containing media with media lacking PMA and further incubate overnight. Stimulate cells were then by RDG-Adenovirus-GFP (Vector Biolabs #1768) at 1000 MOI for 4 hours prior to the addition of test compounds. After overnight incubation, transfer 10 μL of the media from each well to a new plate for IFNb analysis as a marker for cGAS activity. Measure quantification of IFNb with an IFNb AlphaLISA Detection kit (Perkin Elmer AL3133F) by mixing the acceptor beads with the cell supernatant followed by the addition of the biotinylated antibody and donor beads. Measure the relative fluorescence signal produced from the interaction of the donor and acceptor beads by a PHERAStar AlphaLISA protocol and evaluate the inhibitory effect of a compound by plotting specific inhibition of IFNb production against log concentration of the test compound. Calculate IC50 values using a 4-parameter non-linear logistic equation (y=(S0+((SInf−S0)/(1+((qAC50/x)^nHill))))).
T1 sequence (Q8N884 whole entry): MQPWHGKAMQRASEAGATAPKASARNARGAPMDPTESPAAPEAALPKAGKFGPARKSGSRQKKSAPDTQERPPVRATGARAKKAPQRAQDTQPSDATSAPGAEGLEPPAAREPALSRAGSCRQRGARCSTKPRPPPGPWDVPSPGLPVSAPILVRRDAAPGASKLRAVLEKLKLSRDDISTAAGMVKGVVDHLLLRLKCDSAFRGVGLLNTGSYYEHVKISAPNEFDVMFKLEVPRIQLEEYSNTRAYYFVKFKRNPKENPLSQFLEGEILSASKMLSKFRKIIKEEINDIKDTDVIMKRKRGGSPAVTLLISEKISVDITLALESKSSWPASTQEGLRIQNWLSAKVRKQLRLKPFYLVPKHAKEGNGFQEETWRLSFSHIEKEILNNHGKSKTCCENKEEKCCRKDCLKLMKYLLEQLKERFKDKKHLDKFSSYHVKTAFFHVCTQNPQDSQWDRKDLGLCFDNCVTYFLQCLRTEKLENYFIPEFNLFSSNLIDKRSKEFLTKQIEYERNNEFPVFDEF
A general note: Alpha assays give light when donor and acceptor beads are brought close together.

The target in assay [2] is T1, cGAS. The assay can be described thus: In vitro inhibition assay of cGAS activity (cGAMP production, RapidFire mass spectrometry). Conditions: 10 nM recombinant human cGAS, 60 nM 75-bp dsDNA, 50 μM ATP, 50 μM GTP, 3 hrs. Details: Insert cDNA encoding full-length of human cGAS; His6; made in house; host or cells: E. coli BL21(DE3). Format: biochemical. On the procedure:
Expression and Purification of Recombinant cGAS Protein: Insert cDNA encoding full-length of human cGAS into a modified bacterial expression vector containing an in-frame His6-tag. Induce the E. coli strain BL21(DE3) harboring the plasmid with 1 mM IPTG (Isopropyl β-D-1-thiogalactopyranoside) at 18° C. overnight. Purify the His6-tagged cGAS protein over HISpur Ni-NTA resin in the presence of benzonase and RNase followed by Superdex 200 size exclusion chromatography with storage buffer (50 mM Tris-HCl pH 7.5, 300 mM NaCl, 1 mM DTT, 10% glycerol).
In vitro inhibition assay of cGAS activity: Add a 5 μL mixture containing 10 mM Tris-Cl pH 7.5, 50 mM NaCl, 5 mM MgCl2, 1 mM DTT, 0.01% Triton X-100, 60 nM 75-bp dsDNA, 50 μM ATP, 50 μM GTP, 10 nM of recombinant human cGAS, and serial dilutions of a test compound in DMSO to a 384-well plate and incubate at ambient temperature for 3 hrs. Quench the reaction by the addition of 100 μL of stop solution containing 0.1% formic acid and 0.1 μM internal standard (3′3′-difluoro cGAMP). Measure the amount of cGAMP produced by RapidFire 365 mass spectrometry and evaluate inhibitory effect of a compound by plotting percent specific inhibition of cGAMP production against log concentration of the test compound. Calculate IC50 values using a 4-parameter non-linear logistic equation (y=(S0+((Sinf−S0)/(1+((qAC50/x)^nHill))))).

Turning to `N#CCOc1cc(Cl)c(Cl)c2c1c1c3n2CCC3CNC(=O)C1` (stereo not shown) [Example 115, 2-((8,9-Dichloro-2-oxo-2,3,4,4a, 5,6-hexahydro-1H-azepino[3,4,5-gh]benzo[b]pyrrolizin-11-yl)oxy)acetonitrile], the IC50 at cGAS [1] is 1950 nM; on cGAS [2] it was 22.4 nM.
In the case of `N#CCc1cc(Cl)c(Cl)c2[nH]c3c(c12)CC(=O)NCC3` [Example 28, 2-(7,8-Dichloro-2-oxo-1,2,3,4,5,6-hexahydroazepino[4,5-b]indol-10-yl)acetonitrile], the half-inhibitory concentration (IC50) on cGAS [1] came out at 914 nM; on cGAS [2], 58.1 nM.
Taken in the same sequence, the figures for `COCCNc1cc(Cl)c(Cl)c2[nH]c3c(c12)C(C)C(=O)NCC3` (racemic) [Example 46, 7,8-Dichloro-10-((2-methoxyethyl)amino)-1-methyl-3,4,5,6-tetrahydroazepino[4,5-b]indol-2(1H)-one] were 885 nM and 22.6 nM.
Take `CCOc1cc(Cl)c(Cl)c2[nH]c3c(c12)[C@H](C)C(=O)NCC3` (single isomer, unassigned) [Example 15B]: the IC50 was found to be 8140 nM at cGAS [1] and 1090 nM on cGAS [2].
For `C[C@@H](O)CNc1cc(Cl)c(Cl)c2c1c1c(n2C)CCNC(=O)[C@@H]1C` (single isomer, unassigned) [Example 98], in that order: 2180 nM and 42.4 nM.
Taken in the same sequence, the figures for `COCCNc1cc(Cl)c(Cl)c2c1c1c(n2C(F)F)CCNC(=O)C1C` (stereo not shown) [Example 141, 7,8-Dichloro-6-(difluoromethyl)-10-((2-methoxyethyl)amino)-1-methyl-3,4,5,6-tetrahydroazepino[4,5-b]indol-2(1H)-one] were 2440 nM and 35.4 nM.
In the case of `C[C@H]1C(=O)NCC(C)(C)c2[nH]c3c(Cl)c(Cl)cc(NC(=O)CO)c3c21` (single isomer, unassigned) [Example 133], the IC50 came out at 820 nM against cGAS [1] and 20 nM at cGAS [2].
Regarding `Cc1noc(-c2cc(Cl)c(Cl)c3[nH]c4c(c23)CC(=O)NCC4)n1` [Example 25, 7,8-Dichloro-10-(3-methyl-1,2,4-oxadiazol-5-yl)-3,4,5,6-tetrahydroazepino[4,5-b]indol-2(1H)-one], the IC50 is over 10000 nM at cGAS [1] and 27.1 nM on cGAS [2].
As to `C[C@H](O)C(=O)Nc1cc(Cl)c(Cl)c2[nH]c3c(c12)[C@@H](C)C(=O)NCC3` (single isomer, unassigned) [Example 43], the IC50 against cGAS [1] came out at 498 nM; at cGAS [2], 14.9 nM.
For `C[C@H]1C(=O)NCCc2[nH]c3c(Cl)c(Cl)cc(N[C@@H]4CCOC4)c3c21` (single isomer, unassigned) [Example 64], in that order: 2420 nM and 37.9 nM.
Taken in the same sequence, the figures for `COCCOc1cc(Cl)c(Cl)c2c1c1c(n2C)CCNC(=O)C1C` (stereo not shown) [Example 97, 7,8-Dichloro-10-(2-methoxyethoxy)-1,6-dimethyl-3,4,5,6-tetrahydroazepino[4,5-b]indol-2(1H)-one] were 1150 nM and 18 nM.
For `O=C1Cc2c([nH]c3c(Cl)c(Cl)cc(-c4cn[nH]c4)c23)CCN1` [Example 19, 7,8-Dichloro-10-(1H-pyrazol-4-yl)-3,4,5,6-tetrahydroazepino[4,5-b]indol-2(1H)-one], in that order: over 10000 nM and 93.6 nM.
For `CC1Cc2[nH]c3c(Cl)c(Cl)cc(NCCO)c3c2CC(=O)N1` (stereo not shown) [Example 165, 7,8-Dichloro-10-((2-hydroxyethyl)amino)-4-methyl-3,4,5,6-tetrahydroazepino[4,5-b]indol-2(1H)-one], the results for the IC50 on cGAS [1] and on cGAS [2] were 1730 nM and 44.2 nM, respectively.
For `Cn1ncc(-c2cc(Cl)c(Cl)c3[nH]c4c(c23)CC(=O)NC[C@H]4CC(C)(C)O)n1` (single isomer, unassigned) [Example 103], in that order: 398 nM and 17.6 nM.
